| melting point [°C] | SMILES |
| --- | --- |
| 242 to 245 | Cc1nc2cnc3ccccc3c2[nH]1 |
| 216 to 218 | Cc1nc[nH]c1CSCCNc1nc(C)c(-c2ccccc2)c(=O)[nH]1 |
| 82 to 85 | CCOC(=O)c1[nH]c(SCC)nc1C(C)(C)O |
| 223 to 225 | CCN1CCNC(=O)c2ccc(Nc3ncc(Cl)c(Nc4ccccc4OCCN4CCOCC4)n3)cc21 |
| 218 to 220 | O=C(O)Cc1ccc(NC(=O)C(COc2ccc(Cl)cc2)NS(=O)(=O)c2ccc(Br)cc2)cc1 (racemic) |
| 123 to 125 | CCC(=CC(CNC(=O)Cc1cccnc1)=NO)C(C)[N+](=O)[O-] (stereo not drawn) |
| 160 to 161 | Cc1ccccc1NC(=N)NC12CC3CC(CC(C3)C1)C2 |
| 123 to 127 | CSc1nc(-c2cccnc2)c(-c2ccccc2)n1C |
| 203 to 204 | CC1CC(=O)NN=C1c1ccc(N)cc1 (single isomer, unassigned; (-)) |
| 95 to 96 | COc1ccc(-c2c(Cl)ncnc2Cl)cc1 |
| 190 to 191 | CCC1(CC(=O)O)OCCc2nc(-c3ccc(Cl)cc3)sc21 (stereo not drawn) |
| 158 to 160 | CS(=O)(=O)Nc1ccc(C(=N)Nc2cc(Cl)cc(NC(=O)/C=C/c3ccccc3Cl)c2)cc1 |
| 55 to 57 | CC#CCOc1ccc(S(=O)(=O)N(C)C(C(=O)NO)C(C)(C)SCCN(CC)CC)cc1 (stereo not drawn) |
| 90 | CCCCCCCCOc1ccc(-c2ncc(OC(=O)[C@H]3CCCO3)cn2)cc1 |
| 155 to 156 | CC(=O)Nc1ccc(OC(C)=O)c(C)c1C |
| 192 | COC(=O)c1ccc(-c2ccc(I)c(O)c2)cc1 |
| 102 to 104 | OCC(O)Cc1nccn1CCCc1cccc(OCc2coc(/C=C/c3ccc(C(F)(F)F)cc3)n2)c1 (stereo not drawn) |
| 176 to 178 | CS(=O)(=O)N(c1ccc(C(=O)NC2CCN(C3CCCCC3)C2)cc1)S(C)(=O)=O (stereo not drawn) |
| 181 to 191 | COc1cc(C)c2ccccc2n1 |
| 82 to 84 | CC(C)CC(N)C(=O)NC(=O)N(CCCl)N=O (racemic) |
| 104 to 116 | COc1ccc2c(c1)CC[C@@H]1[C@@H]2CC[C@@]2(C)[C@H]1CCC2(OC)OC |
| 49 to 51 | CC(C)=CCCn1ccnc1[N+](=O)[O-] |
| 150 to 152 | COc1cc(OC)nc(Oc2cccc(Cl)c2C(=O)NS(=O)(=O)C(C)C)n1 |
| 176 to 179 | O=C1NC(=O)c2c(F)cccc21 |

| melting point [°C] | SMILES |
| --- | --- |
| 75 | CC(C)(C)NS(=O)(=O)c1cnc(Cl)s1 |
| 49 to 50 | CCC(=O)[C@@H](NC(=O)OCc1ccccc1)C(C)C |
| 93 to 94 | CC(C)C[C@H](NC(=O)OCc1ccccn1)C(=O)N[C@@H](Cc1ccccc1)C(=O)CSCc1ccco1 |
| 102 to 103 | NC(=O)N1CCC(C2c3ncc(Br)cc3CCc3cc(Cl)cc(Cl)c32)CC1 (single isomer, unassigned; (+)) |
| 64 to 68 | CCCCCOc1nc(N)c2ncn(C3CCCCC3)c2n1 |
| 61 to 62 | Cc1cc(CCCOc2c(C)cc(-c3noc(C(F)(F)F)n3)cc2C)on1 |
| 209 to 211 | CC1(C)CC(=S)Nc2ccc(-c3cccc(F)c3)cc21 |
| 229 to 233 | COC(=O)c1cc2cc(OC)c(OC)cc2c(-c2ccnc(N3C(=O)CCc4ccccc43)c2)c1C(=O)OC |
| 172 to 173 | CC(=O)NC(=S)c1nc2cc(Cl)c(Cl)cc2n1S(=O)(=O)N(C)C |
| 203 to 204 | COc1ccc(-c2nc(S(=O)CC3OCCO3)[nH]c2-c2ccc(OC)cc2)cc1 (stereo not drawn) |
| 199 to 200 | Clc1ccc2c(c1)ncc1ncsc12 |
| 77 to 78 | CCOC(=O)C(N)c1ccc(C(C)=O)cc1 (stereo not drawn) |
| 260 to 262 | N#Cc1c(-c2cc3ccccc3s2)nn(-c2ccccc2)c1N |
| 155 to 157 | CC1(C)OC(C=Cc2cccc(C#N)c2)=CC1=O |
| 256 to 260 | CN(C)C(=O)c1c(C(=O)NN=Cc2ccc3ccccc3c2)[nH]c2ccccc12 |
| 89 | O=C1NC(=O)C2CCCC12 (stereo not drawn) |
| 93 to 94.5 | CC(=O)C(Cc1ccc(O)cc1)C(C)=O |
| 161 to 163 | CN(C)C=C(C=C(C#N)C(=O)OC(C)(C)C)c1cccnc1 |
| 188 | Cc1cccc(C(=O)NN=Cc2ccc3ccccc3n2)c1 |
| 192 to 198 | CC1(C)OC(=O)Nc2ccc(-c3cccc(C#N)c3F)cc21 |
| 90 to 91 | COc1cc(CCC2OCCO2)ccc1OCc1nc(-c2ccccc2)oc1C |
| 142 to 143 | CCOC(=O)COc1cc(OC)c2c(c1[N+](=O)[O-])OC1(CCCCC1)CC2=O |
| 67 to 68 | O=C(O)CCCCCCCOc1ccccc1 |
| 171 to 172 | CCCCc1ncc(/C=C(\Cc2ccc(N(C)C)cc2)C(=O)O)n1Cc1ccccc1Cl |

| melting point [°C] | SMILES |
| --- | --- |
| 120 to 122 | CC(=O)Cc1nc2ccccc2c(=O)o1 |
| 73 to 75 | CCCCCNc1ncnc2c(C(C)C)n[nH]c12 |
| 107 to 108 | CCOC(=O)/C(=N\OC1CCCCCC1)c1csc(N)n1 |
| 134 to 135 | CCNC(=O)C1CCN(C(=O)c2cc(-c3ccccc3)c(=O)n3c2-c2sccc2CC3)CC1 |
| 142 to 143 | COc1c(C(C)(C)C)cc(P(c2cc(C(C)(C)C)c(OC)c(C(C)(C)C)c2)c2ccccc2Br)cc1C(C)(C)C |
| 175 to 178 | COc1cc(C=Cc2nc3c(s2)NCCCC3)ccc1O |
| 101 to 102 | COc1ccc(CC(=O)c2ccc(OC)cc2O)cc1 |
| 202 to 204 | CCCOCCOc1ccc(-c2ccc3c(c2)C=C(C(=O)O)CCCN3CCC)cc1 |
| 262 | Cc1nc2c3c(ccc2n1C)[C@@H](O)[C@H](O)[C@@H](c1ccccc1)O3 |
| > 300 | O=c1[nH]cc2c(c1-c1ccc(O)cc1)Nc1ccccc1S2 |
| 121 | O=C1Nc2cc(CN3CCN(c4ccc(C(=O)N5CCCC5)cc4)CC3)cnc2N2CCC[C@@H]12 |
| 90 to 92 | COc1ccc(N2CCN(CCC3CN(C)C(=O)O3)CC2)cc1OC (stereo not drawn) |
| 152 to 153 | O=c1oc(-c2ccccc2)cc(O)c1S(=O)(=O)Cc1ccccc1 |
| 163 to 164 | CCOC(=O)C(C#N)=CNNc1ccc(C(F)(F)F)cc1[N+](=O)[O-] |
| 180 to 181 | CCOC(=O)c1sc2[nH]c(C(=O)c3ccccc3)cc2c1C |
| 62 to 63 | C=CCNc1nc(C)cc(C)n1 |
| 238 to 242 | CS(=O)(=O)Nn1c(=O)[nH]c2cc(C(F)(F)F)c(N3CCC(=O)CC3)cc2c1=O |
| 61 to 62 | CCCCCCC(=Cc1ccccc1)C(O)Cc1nc(C)c(C)nc1C (stereo not drawn) |
| 96 to 98 | O=[N+]([O-])c1ccc(Oc2ccccc2)cc1OCc1ccccc1 |
| 92 to 94 | Cc1ccc(CN2C(=O)C(CCO)Oc3ccccc32)cc1 (stereo not drawn) |
| 76 to 82 | CC(C)(C)OC(=O)CN(CC(=O)O)CC(=O)OC(C)(C)C |
| 161 to 163 | Cc1c(-c2ccccc2)nn(C)c1C(=O)O |
| 90 to 96 | COc1cc2cn(CC3CCCCO3)nc2cc1OC (stereo not drawn) |
| 129 to 131 | COc1cccc(-c2nn(-c3ccccc3)c(-c3cccc(OC)c3)c2CC(=O)O)c1 |

| melting point [°C] | SMILES |
| --- | --- |
| 217 to 219 | COC(=O)C1C(=O)Nc2ccccc2CC1c1ccc(OC)cc1 (stereo not drawn) |
| 256 to 258 | CCN(CC)c1cccc(-c2ccc(C(=O)O)c(=O)[nH]2)c1 |
| 66 | CC(C)(CNC(=O)COCC(=O)OCOC(=O)Cc1ccccc1Nc1c(Cl)cccc1Cl)SN=O |
| 203 to 205 | COc1ccc(N2CCN(c3ccc(S(=O)(=O)N[C@@H](Cc4ccccc4)C(=O)O)cc3)CC2)cc1 |
| 190 to 194 | CCCCc1oc2ccccc2c1C(=O)N(C)Cc1ccc2c(Br)c(OCc3nnn[nH]3)ccc2c1 |
| 182 to 183 | COc1ccc(C(=O)Nc2ccccc2)cc1NC(=S)Nc1ccc(F)cc1 |
| 236 to 239 | Fc1cc(Cn2cncn2)cc2c1Cc1c(-c3ccsc3)n[nH]c1-2 |
| 164 to 165 | CCOC(=O)c1c(C(=O)Nc2ccc(Cl)cc2C)cccc1[N+](=O)[O-] |
| 111 | COc1ccc(N2CCN(c3ccc(N)cc3)CC2)cn1 |
| 167 to 170 | CC(C)(C)OC(=O)N[C@H]1CN(N=C(c2ccccc2)c2ccccc2)C1=O |
| 118 | CC(CO)c1ccc(-c2ccc(F)cc2F)c(O)c1 (stereo not drawn) |
| 152 to 154 | COc1ccc(CCN2CCC(NC(C)=O)CC2)cc1OC |
| 105 to 106 | CN(C)Cc1cc(C(=O)c2cccs2)cc(C2CCCCC2)c1O |
| 195 to 196 | COc1ccc2c(c1)CCC2n1cc[nH]c1=S (stereo not drawn) |
| 81 to 83 | CCOC(=O)C1Oc2cc(C=O)c(Cl)c(Cl)c2O1 (stereo not drawn) |
| 181 to 182 | O=C(O)C1=Cc2cc(Cl)c(C(F)(F)F)cc2OC1C(F)(F)F (stereo not drawn) |
| 196 | O=C(c1ccc(O)cc1)c1ccc([N+](=O)[O-])cc1 |
| 150 | CCOC(=O)c1ccccc1C(=O)c1cccc(NC(=O)c2ccn3c2CSC3c2cccnc2)c1 (stereo not drawn) |
| 121 to 123 | COC(=O)NS(=O)(=O)c1cccc([N+](=O)[O-])c1 |
| 130 to 131 | CCCC(CC)(CC)C(=O)O[C@H]1C[C@H](O)C=C2C=C[C@H](C)[C@H](CC[C@@H]3C[C@@H](O)CC(=O)O3)[C@H]21 |
| 150 to 151 | CCCCCCOc1ccc(NC(=O)c2cnn(C)c2C)cc1C#N |
| 143 to 144 | CC1(C)OC(=O)C(OC2CCCCC2)=C1c1ccc(S(C)(=O)=O)cc1 |
| 98 | C=CCC(F)(F)C(=O)C(Cc1ccccc1)NC(=O)c1ccccc1 (stereo not drawn) |
| 170 to 171 | CCOc1cc2cc(C3=NNC(=O)CC3C)sc2cc1OCC (stereo not drawn) |

| SMILES | melting point [°C] |
| --- | --- |
| O=P(O)(O)C(O)C(O)P(=O)(O)O (stereo not drawn) | 209 to 211 |
| CC1(C)NC(=O)C2CNCCN21 (stereo not drawn) | 174 |
| COc1cccc(NC(=O)NC2N=C(c3ccccc3)c3ccccc3N(C)C2=O)c1 (stereo not drawn) | 216 to 219 |
| O=C(O)c1cccnc1N1CCN(CCOC2c3ccccc3CSc3ccccc32)CC1 (stereo not drawn) | 217 to 218 |
| Clc1ccc2c(c1)C(c1ccccc1Cl)=CCc1nncn1-2 | 189 to 190 |
| COc1ccc(NC(=O)NC2N=C(c3ccccc3)c3ccccc3N(C)C2=O)cc1 (stereo not drawn) | 261 to 263 |
| CN1CCC(c2c[nH]c3ccc(OC4CCCCC4)cc23)CC1 | 192 to 194 |

— a melting point compilation (Tetko et al.; mined from patent text by program, amines drawn as free bases though some values may be those of a salt)
